Data taken from patent US20240109917A1 (ACTELION PHARMACEUTICALS LTD, priority 2020, published 2024).
Read-outs that look alike come from different tables or passages of the source.

Columns and labels:
[1] = target: Tb-labeled inactive PDGFRβ (Homo sapiens (Human), UniProt P09619); experiment: PDGFRβ LanthaScreen Assay; assay type: binding; conditions: read-out: PDGFR Lantha IC50
[2] = target: His6-TEV-PDGFRβ (557-1016) (Homo sapiens (Human), UniProt P09619); experiment: PDGFRβ HTRF Assay; assay type: biochemical; conditions: read-out: PDGFR HTRF IC50
How it was run: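 HTRF KinEASE-TK readout (665/620 nm ratio) of TK-biotin substrate phosphorylation by His-tagged PDGFRβ kinase domain. Enzyme and inhibitor preincubated 30 min, then ATP/substrate added for 3 h at room temperature before 60 min EDTA quench/detection.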

[3] = target: PDGFRβ (Rattus norvegicus (Rat), UniProt Q05030); experiment: PDGFRβ Cellular Assay (PDGFRb P-Y751 HTRF in A10 cells stimulated with PDGF-BB); assay type: cell-based
How it was run: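 Phospho-Y751 PDGFRβ was measured by HTRF in lysates of A10 rat cells. Cells received compound for 3 hours before PDGF-BB stimulation (100 ng/mL working stock).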

PDGFRβ, sequence (Q05030 32-1097): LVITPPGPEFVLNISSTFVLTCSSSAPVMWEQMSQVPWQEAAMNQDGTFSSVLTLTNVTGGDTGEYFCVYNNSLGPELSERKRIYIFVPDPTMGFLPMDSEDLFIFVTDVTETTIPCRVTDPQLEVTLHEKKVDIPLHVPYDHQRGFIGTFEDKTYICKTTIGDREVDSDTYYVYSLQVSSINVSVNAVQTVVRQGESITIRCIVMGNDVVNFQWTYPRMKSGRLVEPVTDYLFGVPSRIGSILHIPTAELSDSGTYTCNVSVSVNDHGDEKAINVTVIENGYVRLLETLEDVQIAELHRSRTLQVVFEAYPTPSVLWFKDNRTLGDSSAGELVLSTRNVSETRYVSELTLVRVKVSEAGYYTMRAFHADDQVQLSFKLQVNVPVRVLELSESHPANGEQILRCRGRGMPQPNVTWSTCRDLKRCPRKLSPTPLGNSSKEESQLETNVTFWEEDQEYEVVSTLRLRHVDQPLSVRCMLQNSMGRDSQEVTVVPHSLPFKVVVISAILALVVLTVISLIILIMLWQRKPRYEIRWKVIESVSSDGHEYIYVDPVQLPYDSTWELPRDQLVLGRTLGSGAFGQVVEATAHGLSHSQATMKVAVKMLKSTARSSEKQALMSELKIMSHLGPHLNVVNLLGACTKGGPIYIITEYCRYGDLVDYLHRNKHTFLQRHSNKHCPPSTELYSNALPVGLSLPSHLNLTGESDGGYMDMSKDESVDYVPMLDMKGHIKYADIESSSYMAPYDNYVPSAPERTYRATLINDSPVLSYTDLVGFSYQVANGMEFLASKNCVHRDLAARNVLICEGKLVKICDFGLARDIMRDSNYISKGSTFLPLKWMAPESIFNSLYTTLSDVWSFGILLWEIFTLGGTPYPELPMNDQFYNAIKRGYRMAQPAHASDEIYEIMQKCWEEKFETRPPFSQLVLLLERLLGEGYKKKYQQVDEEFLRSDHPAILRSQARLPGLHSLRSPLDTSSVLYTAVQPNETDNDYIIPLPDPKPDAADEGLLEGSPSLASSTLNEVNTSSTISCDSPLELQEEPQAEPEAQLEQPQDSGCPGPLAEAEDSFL
Tb-labeled inactive PDGFRβ, sequence (P09619 33-1106): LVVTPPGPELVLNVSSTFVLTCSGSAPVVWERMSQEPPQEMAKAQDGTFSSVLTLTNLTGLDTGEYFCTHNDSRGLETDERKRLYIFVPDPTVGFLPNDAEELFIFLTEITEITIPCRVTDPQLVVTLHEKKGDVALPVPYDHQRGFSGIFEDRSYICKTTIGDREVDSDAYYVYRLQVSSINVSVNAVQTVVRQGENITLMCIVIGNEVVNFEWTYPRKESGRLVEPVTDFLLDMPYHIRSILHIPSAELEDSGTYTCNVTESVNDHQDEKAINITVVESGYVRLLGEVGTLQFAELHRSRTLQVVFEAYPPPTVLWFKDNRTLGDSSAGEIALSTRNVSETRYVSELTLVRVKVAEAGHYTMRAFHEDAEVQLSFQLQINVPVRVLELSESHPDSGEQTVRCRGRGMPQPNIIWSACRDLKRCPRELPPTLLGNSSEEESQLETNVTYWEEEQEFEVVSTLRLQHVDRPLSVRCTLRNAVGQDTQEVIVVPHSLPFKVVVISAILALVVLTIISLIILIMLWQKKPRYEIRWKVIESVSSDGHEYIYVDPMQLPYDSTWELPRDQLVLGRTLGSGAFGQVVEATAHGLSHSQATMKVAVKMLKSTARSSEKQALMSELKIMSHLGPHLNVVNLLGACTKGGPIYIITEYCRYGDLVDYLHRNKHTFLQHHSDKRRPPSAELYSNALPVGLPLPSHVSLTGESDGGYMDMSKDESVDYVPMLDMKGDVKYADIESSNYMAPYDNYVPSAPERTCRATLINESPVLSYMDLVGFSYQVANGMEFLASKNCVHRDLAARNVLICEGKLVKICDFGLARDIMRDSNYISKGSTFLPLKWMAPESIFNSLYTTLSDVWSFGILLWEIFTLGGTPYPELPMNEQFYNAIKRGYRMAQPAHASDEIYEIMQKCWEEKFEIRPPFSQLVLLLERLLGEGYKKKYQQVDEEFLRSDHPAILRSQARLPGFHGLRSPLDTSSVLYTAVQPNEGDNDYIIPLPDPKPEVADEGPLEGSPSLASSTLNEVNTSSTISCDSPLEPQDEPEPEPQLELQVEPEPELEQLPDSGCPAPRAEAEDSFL
His6-TEV-PDGFRβ (557-1016), sequence (P09619 557-1016): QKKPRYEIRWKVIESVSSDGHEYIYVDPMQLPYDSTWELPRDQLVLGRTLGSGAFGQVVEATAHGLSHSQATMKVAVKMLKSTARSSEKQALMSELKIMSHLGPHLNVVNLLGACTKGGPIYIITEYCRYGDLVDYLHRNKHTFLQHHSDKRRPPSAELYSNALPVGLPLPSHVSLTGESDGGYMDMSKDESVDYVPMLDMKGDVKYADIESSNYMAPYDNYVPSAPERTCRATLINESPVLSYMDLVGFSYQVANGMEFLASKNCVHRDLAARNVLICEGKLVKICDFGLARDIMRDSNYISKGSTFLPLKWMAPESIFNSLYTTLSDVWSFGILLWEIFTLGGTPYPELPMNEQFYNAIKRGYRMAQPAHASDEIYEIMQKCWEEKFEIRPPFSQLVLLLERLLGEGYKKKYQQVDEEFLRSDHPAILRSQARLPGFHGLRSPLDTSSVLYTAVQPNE

Row | SMILES | IC50 [1] [nM] | IC50 [2] [nM] | IC50 ([3]; read-out: PDGFR Cellular IC50) [nM] | IC50 ([3]; PDGFR Cellular IC50) [nM]
1 | Cc1ncc(NC(=O)CN2CCC3(CCOC3)C2)cc1NC(=O)c1cnn2cc(-c3cnn(C)c3)sc12 (stereo not drawn) [Example 19, N-(5-(2-(2-oxa-7-azaspiro[4.4]nonan-7-yl)acetamido)-2-methylpyridin-3-yl)-2-(1-methyl-1H-pyrazol-4-yl)pyrazolo[5,1-b]thiazole-7-carboxamide] | 4.2 | 0.7 | 12.9 | –
2 | Cc1ncc(NC(=O)CN2CCCC23COC3)cc1NC(=O)c1cnn2cc(-c3cnn(C)c3)sc12 [Example 20, N-(5-(2-(2-oxa-5-azaspiro[3.4]octan-5-yl)acetamido)-2-methyl-pyridin-3-yl)-2-(1-methyl-1H-pyrazol-4-yl)pyrazolo[5,1-b]thiazole-7-carboxamide] | 8.2 | 0.7 | 35.9 | –
3 | Cc1ncc(NC(=O)CN2CCC3(CCCO3)C2)cc1NC(=O)c1cnn2cc(-c3cnn(C)c3)sc12 (stereo not drawn) [Example 21, N-(5-(2-(1-oxa-7-azaspiro[4.4]nonan-7-yl)acetamido)-2-methylpyridin-3-yl)-2-(1-methyl-1H-pyrazol-4-yl)pyrazolo[5,1-b]thiazole-7-carboxamide] | 5.7 | 0.7 | 10.9 | –
4 | Cc1ncc(NC(=O)CN2CC(C)(C)C2)cc1NC(=O)c1cnn2cc(-c3cnn(C)c3)sc12 [Example 22, N-(5-(2-(3,3-dimethylazetidin-1-yl)acetamido)-2-methylpyridin-3-yl)-2-(1-methyl-1H-pyrazol-4-yl)pyrazolo[5,1-b]thiazole-7-carboxamide] | 8.6 | 0.7 | 5.3 | –
5 | Cc1ncc(NC(=O)CN2CCc3ccncc3C2)cc1NC(=O)c1cnn2cc(-c3cnn(C)c3)sc12 [Example 23, N-(5-(2-(3,4-dihydro-2,7-naphthyridin-2 (1H)-yl)acetamido)-2-methylpyridin-3-yl)-2-(1-methyl-1H-pyrazol-4-yl)pyrazolo[5,1-b]thiazole-7-carboxamide] | 1.3 | 0.7 | – | 67.7
6 | Cc1ncc(NC(=O)CN2CCCC3(COC3)C2)cc1NC(=O)c1cnn2cc(-c3cnn(C)c3)sc12 [Example 24, N-(5-(2-(2-oxa-6-azaspiro[3.5]nonan-6-yl)acetamido)-2-methylpyridin-3-yl)-2-(1-methyl-1H-pyrazol-4-yl)pyrazolo[5,1-b]thiazole-7-carboxamide] | 4.5 | 0.7 | 31.8 | –
7 | Cc1ncc(NC(=O)CN2CCCCC23COC3)cc1NC(=O)c1cnn2cc(-c3cnn(C)c3)sc12 [Example 25, N-(5-(2-(2-oxa-5-azaspiro[3.5]nonan-5-yl)acetamido)-2-methylpyridin-3-yl)-2-(1-methyl-1H-pyrazol-4-yl)pyrazolo[5,1-b]thiazole-7-carboxamide] | 6.6 | 0.7 | 27.7 | –
8 | COc1ncccc1-c1cn2ncc(C(=O)Nc3cc(NC(=O)OCCN4CCCC4(C)C)cnc3C)c2s1 [Example 254, 2-(2,2-dimethylpyrrolidin-1-yl)ethyl (5-(2-(2-methoxypyridin-3-yl)pyrazolo[5,1-b]thiazole-7-carboxamido)-6-methylpyridin-3-yl)carbamate] | 2.6 | 0.2 | 6.2 | –
9 | COc1ncccc1-c1cn2ncc(C(=O)Nc3cc(NC(=O)OCC(C)N4CCCC4)cnc3C)c2s1 (stereo not drawn) [Example 255, 2-(pyrrolidin-1-yl)propyl (5-(2-(2-methoxypyridin-3-yl)pyrazolo[5,1-b]thiazole-7-carboxamido)-6-methylpyridin-3-yl)carbamate] | 1.9 | 0.2 | 9.3 | –
10 | Cc1ncc(NC(=O)OC[C@@H]2CCCN2C)cc1NC(=O)c1cnn2cc(-c3cccnc3O)sc12 [Example 256, (S)-(1-methylpyrrolidin-2-yl)methyl (5-(2-(2-hydroxypyridin-3-yl)pyrazolo[5,1-b]thiazole-7-carboxamido)-6-methylpyridin-3-yl)carbamate] | 14.9 | 0.6 | – | 1340
11 | Cc1ncc(NC(=O)OC[C@@H]2CCCN2C)cc1NC(=O)c1cnn2cc(-c3cccc4c3cnn4C)sc12 [Example 257, (S)-(1-methylpyrrolidin-2-yl)methyl (6-methyl-5-(2-(1-methyl-1H-indazol-4-yl)pyrazolo[5,1-b]thiazole-7-carboxamido)pyridin-3-yl)carbamate] | 2.6 | 0.2 | 13.1 | –
12 | Cc1ncc(NC(=O)OC[C@@H]2CCCN2C)cc1NC(=O)c1cnn2cc(-c3cc[nH]c3)sc12 [Example 258, (S)-(1-methylpyrrolidin-2-yl)methyl (5-(2-(1H-pyrrol-3-yl)pyrazolo[5,1-b]thiazole-7-carboxamido)-6-methylpyridin-3-yl)carbamate] | 4.2 | 0.4 | 48.7 | –
13 | Cc1ncc(NC(=O)CN2CCCC2(C)C)cc1NC(=O)c1cnn2cc(-n3ncc4cccnc43)sc12 [Example 259, N-(5-(2-(2,2-dimethylpyrrolidin-1-yl)acetamido)-2-methylpyridin-3-yl)-2-(1H-pyrazolo[3,4-b]pyridin-1-yl)pyrazolo[5,1-b]thiazole-7-carboxamide] | 2.8 | 0.4 | 3.9 | –
14 | Cc1ncc(NC(=O)CCN2CCCC2(C)C)cc1NC(=O)c1cnn2cc(-n3ncc4cccnc43)sc12 [Example 260, N-(5-(3-(2,2-dimethylpyrrolidin-1-yl)propanamido)-2-methylpyridin-3-yl)-2-(1H-pyrazolo[3,4-b]pyridin-1-yl)pyrazolo[5,1-b]thiazole-7-carboxamide] | 2.1 | 0.3 | – | 3.1
15 | COCCn1cc(-c2cn3ncc(C(=O)Nc4cc(NC(=O)CN5CC(C)(C)C5)cnc4C)c3s2)cn1 [Example 261, N-(5-(2-(3,3-dimethylazetidin-1-yl)acetamido)-2-methylpyridin-3-yl)-2-(1-(2-methoxyethyl)-1H-pyrazol-4-yl)pyrazolo[5,1-b]thiazole-7-carboxamide] | 4.9 | 0.4 | 4.2 | –
16 | Cc1ncc(NC(=O)CN2CC(C)(C)C2)cc1NC(=O)c1cnn2cc(-c3cnn(C4CS(=O)(=O)C4)c3)sc12 [Example 262, N-(5-(2-(3,3-dimethylazetidin-1-yl)acetamido)-2-methylpyridin-3-yl)-2-(1-(1,1-dioxidothietan-3-yl)-1H-pyrazol-4-yl)pyrazolo[5,1-b]thiazole-7-carboxamide] | 6.1 | 0.5 | 36.9 | –
17 | Cc1ncc(NC(=O)CN2CC(C)(C)C2)cc1NC(=O)c1cnn2cc(-c3cnn(CC4COC4)c3)sc12 [Example 263, N-(5-(2-(3,3-dimethylazetidin-1-yl)acetamido)-2-methylpyridin-3-yl)-2-(1-(oxetan-3-ylmethyl)-1H-pyrazol-4-yl)pyrazolo[5,1-b]thiazole-7-carboxamide] | 7.9 | 0.6 | 13.9 | –
18 | Cc1ncc(NC(=O)CN2CC(C)(C)C2)cc1NC(=O)c1cnn2cc(-c3cnn(C4COC4)c3)sc12 [Example 264, N-(5-(2-(3,3-dimethylazetidin-1-yl)acetamido)-2-methylpyridin-3-yl)-2-(1-(oxetan-3-yl)-1H-pyrazol-4-yl)pyrazolo[5,1-b]thiazole-7-carboxamide] | 6.1 | 0.4 | 7.6 | –
19 | Cc1ncc(NC(=O)CN2CC(C)(C)C2)cc1NC(=O)c1cnn2cc(-c3cnn(CS(C)(=O)=O)c3)sc12 [Example 265, N-(5-(2-(3,3-dimethylazetidin-1-yl)acetamido)-2-methylpyridin-3-yl)-2-(1-((methylsulfonyl)methyl)-1H-pyrazol-4-yl)pyrazolo[5,1-b]thiazole-7-carboxamide] | 8.7 | 0.5 | 114 | –
20 | Cc1ncc(NC(=O)CN2CC(C)(C)C2)cc1NC(=O)c1cnn2cc(-c3cnn(CC#N)c3)sc12 [Example 266, 2-(1-(cyanomethyl)-1H-pyrazol-4-yl)-N-(5-(2-(3,3-dimethylazetidin-1-yl)acetamido)-2-methylpyridin-3-yl)pyrazolo[5,1-b]thiazole-7-carboxamide] | 11.1 | 0.7 | 36.2 | –
21 | Cc1ncc(NC(=O)CN2CC(C)(C)C2)cc1NC(=O)c1cnn2cc(-c3cnn(CC(N)=O)c3)sc12 [Example 267, 2-(1-(2-amino-2-oxoethyl)-1H-pyrazol-4-yl)-N-(5-(2-(3,3-dimethylazetidin-1-yl)acetamido)-2-methylpyridin-3-yl)pyrazolo[5,1-b]thiazole-7-carboxamide] | 13.7 | 0.9 | 701 | –
22 | Cc1ncc(NC(=O)CN2CC(C)(C)C2)cc1NC(=O)c1cnn2cc(-c3cnn(CC(F)(F)F)c3)sc12 [Example 268, N-(5-(2-(3,3-dimethylazetidin-1-yl)acetamido)-2-methylpyridin-3-yl)-2-(1-(2,2,2-trifluoroethyl)-1H-pyrazol-4-yl)pyrazolo[5,1-b]thiazole-7-carboxamide] | 14.5 | 0.6 | 11.6 | –
23 | Cc1ncc(NC(=O)CN2CC(C)(C)C2)cc1NC(=O)c1cnn2cc(-c3cnn(C(F)(F)F)c3)sc12 [Example 269, N-(5-(2-(3,3-dimethylazetidin-1-yl)acetamido)-2-methylpyridin-3-yl)-2-(1-(trifluoromethyl)-1H-pyrazol-4-yl)pyrazolo[5,1-b]thiazole-7-carboxamide] | 71.2 | 1.8 | 17.5 | –
